From PMC7935272 (PLoS Pathogens, 2021)
Like-named read-outs stand apart in the source and are kept apart here.

Tests used:
[1] = cited from earlier work
[2] = system: MeV; assay: Cell-based anti-MeV assays of earlier work
[3] = system: MeV; details: cited from earlier work; for IC50: Figure 7A source data; for EC50: experimental activity, read-out: EC50
[4] = −log10(EC50) of literature EC50

SMILES | CC50 [1] [µM] | IC50 ([2]; Figure 7A source data) [µM] | IC50 [2, 4] [µM] | IC50 [3] [µM] | EC50 [3] [µM]
COCOCC1CCCCN1S(=O)(=O)c1ccc(NC(=O)c2cc(C(F)(F)F)nn2C)cc1 (centres unmarked) [1a, S(=O)(=O)(N1C(COCOC)CCCC1)c1ccc(NC(=O)c2n(C)nc(C(F)(F)F)c2)cc1] | > 100 | 1.5 | 1.5 | 1.5 | 1.5
CCOC(=O)C=CC1CCCCN1S(=O)(=O)c1ccc(NC(=O)c2cc(C(F)(F)F)nn2C)cc1 (centres unmarked) [2g, S(=O)(=O)(N1C(C=CC(=O)OCC)CCCC1)c1ccc(NC(=O)c2n(C)nc(C(F)(F)F)c2)cc1] | > 100 | 6.8 | 6.81 | 6.8 | 6.8
CCOC(=O)CCC1CCCCN1S(=O)(=O)c1ccc(NC(=O)c2cc(C(F)(F)F)nn2C)cc1 (centres unmarked) [2i, S(=O)(=O)(N1C(CCC(=O)OCC)CCCC1)c1ccc(NC(=O)c2n(C)nc(C(F)(F)F)c2)cc1] | > 100 | 6.7 | 6.71 | 6.69 | 6.6
Cn1nc(C(F)(F)F)cc1C(=O)Nc1ccc(S(=O)(=O)N2CCCC[C@H]2CCO)cc1 [2k, S(=O)(=O)(N1[C@H](CCO)CCCC1)c1ccc(NC(=O)c2n(C)nc(C(F)(F)F)c2)cc1] | > 100 |  | 0.1 |  | 0.1
Cn1nc(C(F)(F)F)cc1C(=O)Nc1ccc(S(=O)(=O)c2ccccc2)cc1 [3a, S(=O)(=O)(c1ccc(NC(=O)c2n(C)nc(C(F)(F)F)c2)cc1)c1ccccc1] | > 100 | 0.09 | 0.0902 | 0.09 | 0.09
COc1ccccc1S(=O)(=O)c1ccc(NC(=O)c2cc(C(F)(F)F)nn2C)cc1 [3b, S(=O)(=O)(c1c(OC)cccc1)c1ccc(NC(=O)c2n(C)nc(C(F)(F)F)c2)cc1] | > 100 | 3.1 | 3.1 | 3.09 | 3
Cn1nc(C(F)(F)F)cc1C(=O)Nc1ccc(S(=O)(=O)c2ccccc2O)cc1 [3c, S(=O)(=O)(c1c(O)cccc1)c1ccc(NC(=O)c2n(C)nc(C(F)(F)F)c2)cc1] | 75 | 4.5 | 4.51 | 4.5 | 4.5
CC(=O)Oc1ccccc1S(=O)(=O)c1ccc(NC(=O)c2cc(C(F)(F)F)nn2C)cc1 [3d, S(=O)(=O)(c1c(OC(=O)C)cccc1)c1ccc(NC(=O)c2n(C)nc(C(F)(F)F)c2)cc1] | > 100 | 4.5 | 4.51 | 4.5 | 4.5
CCn1nc(C(F)(F)F)cc1C(=O)Nc1ccc(S(=O)(=O)N2CCCCC2C)cc1 (centres unmarked) [9a, S(=O)(=O)(N1C(C)CCCC1)c1ccc(NC(=O)c2n(CC)nc(C(F)(F)F)c2)cc1] | 30 | 0.055 | 0.0551 | 0.055 | 0.055
Cn1cc(C(F)(F)F)cc1C(=O)Nc1ccc(S(=O)(=O)N2CCCCC2)cc1 [15a, S(=O)(=O)(N1CCCCC1)c1ccc(NC(=O)c2n(C)cc(C(F)(F)F)c2)cc1] | > 300 | 0.014 | 0.014 | 0.014 | 0.014
CC1CCCCN1S(=O)(=O)c1ccc(NC(=O)c2cc(C(F)(F)F)cn2C)cc1 (centres unmarked) [15b, S(=O)(=O)(N1C(C)CCCC1)c1ccc(NC(=O)c2n(C)cc(C(F)(F)F)c2)cc1] | > 300 | 0.029 | 0.029 | 0.0289 | 0.028
CC1CCN(S(=O)(=O)c2ccc(NC(=O)c3cc(C(F)(F)F)cn3C)cc2)CC1 [15c, S(=O)(=O)(N1CCC(C)CC1)c1ccc(NC(=O)c2n(C)cc(C(F)(F)F)c2)cc1] | > 300 | 0.035 | 0.0351 | 0.035 | 0.035
CC1CCCC(C)N1S(=O)(=O)c1ccc(NC(=O)c2cc(C(F)(F)F)cn2C)cc1 (centres unmarked) [15d, S(=O)(=O)(N1C(C)CCCC1C)c1ccc(NC(=O)c2n(C)cc(C(F)(F)F)c2)cc1] | > 300 | 0.014 | 0.014 | 0.014 | 0.014
CCC1CCCCN1S(=O)(=O)c1ccc(NC(=O)c2cc(C(F)(F)F)cn2C)cc1 (centres unmarked) [15e, S(=O)(=O)(N1C(CC)CCCC1)c1ccc(NC(=O)c2n(C)cc(C(F)(F)F)c2)cc1] | > 300 | 0.087 | 0.0871 | 0.0869 | 0.086
Cn1cc(C(F)(F)F)cc1C(=O)Nc1ccc(S(=O)(=O)N2CCCCCC2)cc1 [15f, S(=O)(=O)(N1CCCCCC1)c1ccc(NC(=O)c2n(C)cc(C(F)(F)F)c2)cc1] | > 300 | 0.005 | 0.005 | 0.005 | 0.005
Cn1cc(C(F)(F)F)cc1C(=O)Nc1ccc(S(=O)(=O)N2CCCCCCC2)cc1 [15g, S(=O)(=O)(N1CCCCCCC1)c1ccc(NC(=O)c2n(C)cc(C(F)(F)F)c2)cc1] | > 300 | 0.045 | 0.0451 | 0.045 | 0.045

SMILES | CC50 [1] [µM] | IC50 ([2]; Figure 7A source data) [µM] | IC50 [2, 4] [µM] | IC50 [3] [µM] | EC50 [3] [µM]
Cn1cc(C(F)(F)F)cc1C(=O)Nc1ccc(S(=O)(=O)N2CCC[C@@H]2C(=O)OC(=O)c2ccccc2)cc1 [15h, S(=O)(=O)(N1[C@@H](C(=O)OC(=O)c2ccccc2)CCC1)c1ccc(NC(=O)c2n(C)cc(C(F)(F)F)c2)cc1] | > 100 | 14 | 14 | 14 | 14
Cn1cc(C(F)(F)F)cc1C(=O)Nc1ccc(S(=O)(=O)N2CCCC2C(=O)O)cc1 (centres unmarked) [15i, S(=O)(=O)(N1C(C(=O)O)CCC1)c1ccc(NC(=O)c2n(C)cc(C(F)(F)F)c2)cc1] | > 300 | 23 | 23 | 23 | 23
Cn1cc(C(F)(F)F)cc1C(=O)Nc1ccc(S(=O)(=O)N2CCC(C(F)(F)F)CC2)cc1 [15k, S(=O)(=O)(N1CCC(C(F)(F)F)CC1)c1ccc(NC(=O)c2n(C)cc(C(F)(F)F)c2)cc1] | 159 | 0.02 | 0.02 | 0.02 | 0.02
CN(C)S(=O)(=O)c1ccc(NC(=O)c2cc(C(F)(F)F)cn2C)cc1 [15m, S(=O)(=O)(N(C)C)c1ccc(NC(=O)c2n(C)cc(C(F)(F)F)c2)cc1] | > 300 | 6.3 | 6.31 | 6.3 | 6.3
CCN(CC)S(=O)(=O)c1ccc(NC(=O)c2cc(C(F)(F)F)cn2C)cc1 [15n, S(=O)(=O)(N(CC)CC)c1ccc(NC(=O)c2n(C)cc(C(F)(F)F)c2)cc1] | > 300 | 0.019 | 0.019 | 0.0189 | 0.018
CC(C)N(C(C)C)S(=O)(=O)c1ccc(NC(=O)c2cc(C(F)(F)F)cn2C)cc1 [15o, S(=O)(=O)(N(C(C)C)C(C)C)c1ccc(NC(=O)c2n(C)cc(C(F)(F)F)c2)cc1] | > 300 | 0.53 | 0.531 | 0.529 | 0.52
CCCN(CCC)S(=O)(=O)c1ccc(NC(=O)c2cc(C(F)(F)F)cn2C)cc1 [15p, S(=O)(=O)(N(CCC)CCC)c1ccc(NC(=O)c2n(C)cc(C(F)(F)F)c2)cc1] | > 300 | 0.19 | 0.19 | 0.19 | 0.19
C=CCN(CC=C)S(=O)(=O)c1ccc(NC(=O)c2cc(C(F)(F)F)cn2C)cc1 [15r, S(=O)(=O)(N(CC=C)CC=C)c1ccc(NC(=O)c2n(C)cc(C(F)(F)F)c2)cc1] | 34 | 3.3 | 3.3 | 3.3 | 3.3
Cn1nc(C(F)(F)F)cc1C(=O)Nc1ccc(S(=O)(=O)N2CCCCC2CO)cc1 (centres unmarked) [28c, S(=O)(=O)(N1C(CO)CCCC1)c1ccc(NC(=O)c2n(C)nc(C(F)(F)F)c2)cc1] |  | 0.85 | 0.851 | 0.85 | 0.85
Cn1nc(C(F)(F)F)cc1C(=O)Nc1ccc(S(=O)(=O)N2CCC[C@@H]2C(=O)O)cc1 [AS-105, S(=O)(=O)(N1[C@@H](C(=O)O)CCC1)c1ccc(NC(=O)c2n(C)nc(C(F)(F)F)c2)cc1] | > 300 | 23 | 23 | 23 | 23
Cn1nc(C(F)(F)F)cc1C(=O)Nc1ccc(S(=O)(=O)N2CCCCC2)cc1 [AS-136a, S(=O)(=O)(N1CCCCC1)c1ccc(NC(=O)c2n(C)nc(C(F)(F)F)c2)cc1] | > 300 | 0.014 | 0.014 | 0.014 | 0.014
O=C(Nc1ccc(S(=O)(=O)N2CCCC2)cc1)c1nccn1-c1ccccc1C(F)(F)F [MS-12, S(=O)(=O)(N1CCCC1)c1ccc(NC(=O)c2n(-c3c(C(F)(F)F)cccc3)ccn2)cc1] | > 300 | 65 | 65 | 65 | 65
Cn1nc(C(F)(F)F)cc1C(=O)Cc1ccc(S(=O)(=O)N2CCCC2)cc1 [MS-26, S(=O)(=O)(N1CCCC1)c1ccc(CC(=O)c2n(C)nc(C(F)(F)F)c2)cc1] | > 300 | 15.5 | 15.5 | 15.5 | 15.5
Cn1nc(C(F)(F)F)cc1C(O)Cc1ccc(S(=O)(=O)N2CCCC2)cc1 (centres unmarked) [MS-27, S(=O)(=O)(N1CCCC1)c1ccc(CC(O)c2n(C)nc(C(F)(F)F)c2)cc1] | > 300 | 41 | 41 | 41 | 41
Cn1nc(C(F)(F)F)cc1C(=O)Nc1ccc(S(=O)(=O)N2CCCC2)cc1 [compound 16677, S(=O)(=O)(N1CCCC1)c1ccc(NC(=O)c2n(C)nc(C(F)(F)F)c2)cc1] | > 300 | 0.24 | 0.24 | 0.239 | 0.23
